One series has as its target TMPRSS2 (Homo sapiens, UniProt O15393). The series is described as follows: Michaelis-Menten constant of the fluorogenic reference substrate. The note with it: read-out: Michaelis-Menten constant KM for TMPRSS2.
Series [1] concerns the target T1, recombinant human matriptase (Homo sapiens, UniProt Q9Y5Y6).
T1 construct: purchased R&D Systems (Minneapolis, MN, USA)
T1 sequence (Q9Y5Y6 1-855): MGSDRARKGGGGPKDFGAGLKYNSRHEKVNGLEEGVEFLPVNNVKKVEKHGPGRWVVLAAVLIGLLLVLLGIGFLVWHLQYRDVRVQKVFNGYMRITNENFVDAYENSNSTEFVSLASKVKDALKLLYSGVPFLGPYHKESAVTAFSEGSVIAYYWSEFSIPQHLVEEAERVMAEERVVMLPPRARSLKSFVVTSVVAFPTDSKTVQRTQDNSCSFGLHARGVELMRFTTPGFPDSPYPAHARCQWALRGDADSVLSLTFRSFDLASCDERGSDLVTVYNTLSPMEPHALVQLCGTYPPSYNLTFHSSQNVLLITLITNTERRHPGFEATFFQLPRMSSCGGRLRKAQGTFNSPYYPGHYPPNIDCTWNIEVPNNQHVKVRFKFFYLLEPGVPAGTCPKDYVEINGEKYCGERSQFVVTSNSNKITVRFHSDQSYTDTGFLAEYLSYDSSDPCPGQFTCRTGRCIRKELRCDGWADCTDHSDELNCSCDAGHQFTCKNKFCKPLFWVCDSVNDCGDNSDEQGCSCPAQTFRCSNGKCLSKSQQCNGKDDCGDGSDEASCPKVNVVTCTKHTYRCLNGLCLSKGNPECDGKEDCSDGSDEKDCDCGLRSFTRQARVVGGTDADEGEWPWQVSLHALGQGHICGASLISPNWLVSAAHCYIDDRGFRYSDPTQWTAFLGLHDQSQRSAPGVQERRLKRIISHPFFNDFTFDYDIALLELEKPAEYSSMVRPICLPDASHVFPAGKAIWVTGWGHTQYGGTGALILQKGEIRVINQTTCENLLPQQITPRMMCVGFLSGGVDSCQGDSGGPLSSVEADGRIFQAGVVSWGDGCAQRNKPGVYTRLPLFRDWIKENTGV
Kind of series: Enzyme inhibition assay with purified matriptase (Ki, dose-response). The format is biochemical. The note with it: for matriptase activity, Mean (Fig. 2b): normalized, 0 nM = 100.

Series [2] deals with T2, recombinant human thrombin (Homo sapiens, UniProt P00734).
T2 construct: purchased R&D Systems (Minneapolis, MN, USA)
Kind of series: Enzyme inhibition assay with purified thrombin (Ki, dose-response). The format is biochemical. The note with it: for thrombin activity, Mean (Fig. 2c): normalized. The text has this: (§1) Recombinant human TMPRSS2 was purchased from Creative BioMart (New York, USA) or LSBio (Seattle, USA), factor Xa was obtained from Bio-Techne GmbH (Wiesbaden, Germany). Recombinant human thrombin and matriptase protein were purchased from R&D Systems (Minneapolis, MN, USA).

Another series deals with T3, factor Xa (Homo sapiens, UniProt P00742).
T3 construct: purchased Bio-Techne GmbH (Wiesbaden, Germany)
T3 sequence (P00742 235-488 limits assumed): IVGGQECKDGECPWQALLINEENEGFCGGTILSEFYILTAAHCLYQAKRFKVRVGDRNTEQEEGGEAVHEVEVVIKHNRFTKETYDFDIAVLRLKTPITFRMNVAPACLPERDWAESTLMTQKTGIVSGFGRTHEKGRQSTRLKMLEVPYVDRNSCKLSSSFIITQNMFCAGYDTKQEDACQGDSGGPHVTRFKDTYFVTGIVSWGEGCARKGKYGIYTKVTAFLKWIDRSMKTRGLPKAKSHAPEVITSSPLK
T3 sequence (P00742 41-179 partner limits assumed): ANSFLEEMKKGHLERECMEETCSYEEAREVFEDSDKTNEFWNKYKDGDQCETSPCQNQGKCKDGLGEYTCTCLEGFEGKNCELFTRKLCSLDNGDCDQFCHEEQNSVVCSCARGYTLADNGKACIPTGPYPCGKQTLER
The series is described as follows: Enzyme inhibition assay with purified factor Xa (Ki, dose-response). It counts as biochemical. The note with it: for factor Xa activity, Mean (Fig. 2d): normalized, 0 nM = 100.
Description: as §1

For series [3] the following is noted: iv; cited from earlier work.
The mark [4] stands for this setting: 30 min preincubation, substrate Boc-Gln-Ala-Arg-AMC.
Where [5] appears, read: 30 min preincubation, substrate D-Phe-Homopro-Arg-pNA.
Where [6] appears, read: 30 min preincubation, substrate Bz-Ile-Glu-Gly-Arg-pNA.

Structures are written as SMILES. Where a SMILES comes first, the peptide text is derived from it. The star is where a group is joined. AMC = Cc1cc(=O)oc2cc(N*)ccc12; Boc = CC(C)(C)OC(=O)*

Chain of TMPRSS2 (O15393 whole entry): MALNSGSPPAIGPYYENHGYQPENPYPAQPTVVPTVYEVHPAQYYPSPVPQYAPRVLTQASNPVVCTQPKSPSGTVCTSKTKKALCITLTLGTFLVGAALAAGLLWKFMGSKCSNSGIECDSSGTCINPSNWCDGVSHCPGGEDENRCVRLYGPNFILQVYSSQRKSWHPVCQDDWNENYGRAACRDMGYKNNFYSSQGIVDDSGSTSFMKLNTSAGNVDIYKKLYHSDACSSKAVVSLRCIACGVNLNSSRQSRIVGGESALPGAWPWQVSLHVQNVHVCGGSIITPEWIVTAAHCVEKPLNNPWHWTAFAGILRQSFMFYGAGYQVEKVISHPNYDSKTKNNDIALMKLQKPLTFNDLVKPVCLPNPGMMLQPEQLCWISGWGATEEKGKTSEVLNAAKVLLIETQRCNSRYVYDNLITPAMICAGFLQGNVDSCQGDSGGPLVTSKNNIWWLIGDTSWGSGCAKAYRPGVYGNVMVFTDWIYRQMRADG
Description for TMPRSS2: The measurements were performed on a Tecan infinite® M1000 and the fluorescence intensity was measured by exciting the AMC fluorophore at 380 nm wavelength and recording emission at 460 nm wavelength. […] Fluorescence intensities and absorption were measured every 2 min for 2 h or as endpoint after 2 h.
Supplementary Figure 2 Michaelis-Menten constant (KM) of the fluorogenic reference substrate
The data points were plotted using the Michaelis -Menten
equation in GraphPad Prism prism version 8.4.2 (San Diego, California). Shown are the means ± SD of
n=1 experiment performed in triplicates.

With `Cc1cc(=O)oc2cc(NC(=O)[C@H](CCCN=C(N)N)NC(=O)[C@H](C)NC(=O)[C@H](CCC(N)=O)NC(=O)OC(C)(C)C)ccc12` [Boc-Gln-Ala-Arg-AMC] (Boc-Gln-Ala-Arg-{AMC}), the Km (usually the concentration of substrate that gives half-maximal velocity) on TMPRSS2 came to 77 µM.

Turning to `CC(=O)N[C@H](CCCNC(=N)N)C(=O)N[C@@H](CC1CCC1)C(=O)N[C@H](CO)CCCNC(=N)N` [Cpd. 7 alcohol], the “Ki Matriptase” value in series [1] (setting [4]) is on record as “n.i”. The “matriptase activity, Mean (control = 100), S6a” value (“matriptase activity, Mean … S6a” below) turned out to be 90.4903 in series [1] (inhibitor 10 nM); 101.634 in series [1] (inhibitor 100 nM); 101.337 in series [1] (inhibitor 1000 nM); 91.3819 in series [1] (inhibitor 50000 nM); 44.4279 in series [1] (inhibitor 500000 nM). The “Ki Thrombin” value in series [2] (setting [5]) is recorded as “n.i”. For the same compound, the “thrombin activity, Mean (control = 100), S6b” value (“thrombin activity, Mean … S6b” for short) in series [2] (inhibitor 0.2 nM) is 90.7019; in series [2] (inhibitor 2 nM), 92.977; in series [2] (inhibitor 20 nM), 91.1965; in series [2] (inhibitor 200 nM) it was 95.4993; in series [2] (inhibitor 10000 nM), 93.8672; in series [2] (inhibitor 100000 nM), 91.2954. Further, the “Ki Factor Xa” value on factor Xa (setting [6]) is on record as “n.i”. Moreover, the “factor Xa activity, Mean (control = 100), S6c” value (“factor Xa activity, Mean … S6c” below) amounted to 93.6065 at factor Xa (inhibitor 0.2 nM); 101.454 at factor Xa (inhibitor 2 nM); 95.9299 at factor Xa (inhibitor 20 nM); 88.9574 at factor Xa (inhibitor 200 nM); 78.1999 at factor Xa (inhibitor 10000 nM); 120.06 on factor Xa (inhibitor 100000 nM).

On to `CC(=O)NC(CCCNC(=N)N)C(=O)NC(CC1CCC1)C(=O)NC(CCCNC(=N)N)C(=O)c1nccs1` (stereo not shown) [Cpd. 7 ketothiazole], for which the Ki (as a rule, a measure of affinity in units of concentration, obtained from inhibition or displacement) was 141 nM in series [1] (setting [4]) and 98.7 nM at factor Xa (setting [6]). Moreover, the “matriptase activity, Mean … S6a” value in series [1] (inhibitor 0.1 nM) is 103.606; in series [1] (inhibitor 0.2 nM), 101.185; in series [1] (inhibitor 1 nM), 109.016; in series [1] (inhibitor 10 nM), 101.829; in series [1] (inhibitor 100 nM), 75.1932; in series [1] (inhibitor 1000 nM) it was 21.355. Moreover, the “matriptase activity, Mean … S6a” value in series [1] (inhibitor 50000 nM) was 0.4637; in series [1] (inhibitor 500000 nM) it was -0.1803. Besides, the “Ki Thrombin” value in series [2] (setting [5]) is “n.i”. Also, the “thrombin activity, Mean … S6b” value came out at 96.7111 in series [2] (inhibitor 0.02 nM); 101.49 in series [2] (inhibitor 0.04 nM); 101.233 in series [2] (inhibitor 0.2 nM); 107.554 in series [2] (inhibitor 2 nM); 101.388 in series [2] (inhibitor 20 nM); 101.233 in series [2] (inhibitor 200 nM). The results for the “thrombin activity, Mean … S6b” value in series [2] (inhibitor 10000 nM) and in series [2] (inhibitor 100000 nM) were 98.2014 and 83.6589, respectively. In addition, the “factor Xa activity, Mean … S6c” value on factor Xa (inhibitor 0.02 nM) was found to be 95.3485; on factor Xa (inhibitor 0.04 nM), 90.4387; at factor Xa (inhibitor 0.2 nM), 87.8566; on factor Xa (inhibitor 2 nM) it was 87.8545; on factor Xa (inhibitor 20 nM), 82.4299; at factor Xa (inhibitor 200 nM), 52.1976. The “factor Xa activity, Mean … S6c” value on factor Xa (inhibitor 10000 nM) was found to be 2.584; at factor Xa (inhibitor 100000 nM), 3.101.

As for `NC(N)=Nc1ccc(C(=O)Oc2ccc(CC(=O)O)cc2)cc1` [FOY-251, reference compound], the “matriptase activity, Mean (Fig. 2b)” value in series [1] (0.05 nM) was 110.25; in series [1] (0.5 nM), 111.62; in series [1] (5 nM), 106.849; in series [1] (50 nM) it was 97.213; in series [1] (500 nM), 35.5692; in series [1] (5000 nM), 1.606. The “matriptase activity, Mean (Fig. 2b)” value in series [1] (50000 nM) stood at 0.2362; in series [1] (500000 nM), 0.1417. Also, the inhibitory constant (Ki) in series [1] (setting [4]) is 173 nM; in series [2] (setting [5]), over 50000 nM; at factor Xa (setting [6]), 697 nM. Besides, the “thrombin activity, Mean (Fig. 2c)” value in series [2] (0.01 nM) is recorded as 101.844; in series [2] (0.02 nM, 0 nM = 100), 101.898; in series [2] (0.04 nM, 0 nM = 100) it was 101.898; in series [2] (0.2 nM, 0 nM = 100) it was 101.356; in series [2] (2 nM, 0 nM = 100), 99.0781; in series [2] (20 nM, 0 nM = 100), 102.277. In addition, the “thrombin activity, Mean (Fig. 2c)” value in series [2] (10000 nM, 0 nM = 100) is recorded as 93.0588; in series [2] (100000 nM, 0 nM = 100), 44.1974. Moreover, the “factor Xa activity, Mean (Fig. 2d)” value on factor Xa (0.02 nM) came to 91.2533; at factor Xa (0.04 nM), 91.3991; on factor Xa (0.2 nM), 72.8853; at factor Xa (2 nM) it was 86.5885; at factor Xa (20 nM), 82.2151; at factor Xa (200 nM) it was 72.5938. Besides, the “factor Xa activity, Mean (Fig. 2d)” value was found to be 34.986 at factor Xa (10000 nM) and 16.3265 on factor Xa (100000 nM). Also, the in vivo half-life in series [3] was 1 to 1.67 h.
